# System: benzodiazepine receptors
# Test: in vivo displacement of 3H-flunitrazepam from brain benzodiazepine receptors
# Conditions: female mice, intraperitoneal, 15 min before 3H-FNM i.v.; forebrain 20 min after 3H-FNM
# Source text: The pharmaceutical properties of the compounds of the invention can be illustrated by determining their capability for displacing radioactivity labelled flunitrazepam from benzodiazepine receptors.
# The displacement activity of the compounds of the invention may be found by determining the ED50 value. The ED50 value represents the dose (mg/kg) of a test substance which causes the specific binding of flunitrazepam to benzodiazepine receptors in a living brain to be reduced to 50% of the control value.
# Such an in vivo test is carried out as follow:
# Principle. Twenty minutes after a dose of ^3 H-flunitrazepam (^3 H-FNM) (200 μCi/kg, i.v.) the amount of specific ^3 H-FNM binding to brain benzodiazepine receptors has reached its maximum value.
# Test procedure. […] The amounts of radioactivity on the filters are determined by conventional scintillation counting. […]
# Results. The ED50 value is determined from dose response curves. If only one dose of test substance is administered the ED50 value is calculated as follows, provided that the inhibition of specific binding is within the range of 25-75%: [formula] where Co is specific binding in controls and Cx is specific binding in mice treated with test substance.
structure (smiles),measurement,value
c1ccc2c(c1)N1CCCC1c1c(-c3noc(C4CC4)n3)ncn1-2 (stereo not shown),in vivo ED50 (dose reducing specific 3H-flunitrazepam binding to brain benzodiazepine receptors to 50% of the control value),5.1 mg/kg

# Source: US4795749A, “Imidazopyrroloquinoxaline compounds” (A/S Ferrosan, priority 1985, dated 1989)
